From patent publication US9074009B2, “Stabilized MAML peptides and uses thereof” (Dana-Farber Cancer Institute, Inc., priority 2006, dated 2015)
Bridge positions count the residues as written; N and C are the ends. Square brackets hold non-standard residues; d marks the D form. Peptide text beside a SMILES is read from it. * marks the point of attachment. Biotin = O=C1N[C@H]2[C@H](CS[C@H]2CCCCC(=O)*)N1; S5 = C=CCCC[C@](C)(N)C(=O)O; βAla = NCCC(=O)O

Key:
ICN and CSL = target: T1, ICN and CSL (Homo sapiens, UniProt P46531+Q06330); experiment: Immunoprecipitation from T-ALL (KOPTK1) cell lysates; assay type: binding; conditions: FIG. 19
T1 construct: endogenous in cells; host or cells: KOPTK1 (T-ALL) cell lysates
T1 sequence (P46531 1754-2555 limits assumed): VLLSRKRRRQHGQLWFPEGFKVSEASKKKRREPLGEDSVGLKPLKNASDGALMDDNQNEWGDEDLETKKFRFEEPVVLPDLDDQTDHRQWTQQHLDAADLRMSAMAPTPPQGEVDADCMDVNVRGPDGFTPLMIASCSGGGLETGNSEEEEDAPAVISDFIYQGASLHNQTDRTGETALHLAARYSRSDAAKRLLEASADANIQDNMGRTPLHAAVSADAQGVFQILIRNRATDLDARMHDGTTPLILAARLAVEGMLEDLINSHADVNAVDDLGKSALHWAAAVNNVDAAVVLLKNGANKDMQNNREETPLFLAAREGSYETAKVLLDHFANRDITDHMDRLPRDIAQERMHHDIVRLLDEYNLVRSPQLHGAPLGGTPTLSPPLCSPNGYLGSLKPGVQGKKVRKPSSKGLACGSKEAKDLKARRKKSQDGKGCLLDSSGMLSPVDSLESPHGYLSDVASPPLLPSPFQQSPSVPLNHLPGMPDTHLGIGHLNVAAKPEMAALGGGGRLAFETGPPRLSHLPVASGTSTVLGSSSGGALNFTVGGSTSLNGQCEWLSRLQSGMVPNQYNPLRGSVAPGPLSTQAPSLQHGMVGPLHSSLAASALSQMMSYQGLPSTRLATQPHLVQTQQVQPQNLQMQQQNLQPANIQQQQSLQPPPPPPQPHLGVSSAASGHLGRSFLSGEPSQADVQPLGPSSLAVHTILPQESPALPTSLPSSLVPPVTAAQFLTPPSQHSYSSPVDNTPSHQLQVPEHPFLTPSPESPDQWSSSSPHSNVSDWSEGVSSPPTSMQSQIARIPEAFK
T1 sequence (Q06330 whole entry): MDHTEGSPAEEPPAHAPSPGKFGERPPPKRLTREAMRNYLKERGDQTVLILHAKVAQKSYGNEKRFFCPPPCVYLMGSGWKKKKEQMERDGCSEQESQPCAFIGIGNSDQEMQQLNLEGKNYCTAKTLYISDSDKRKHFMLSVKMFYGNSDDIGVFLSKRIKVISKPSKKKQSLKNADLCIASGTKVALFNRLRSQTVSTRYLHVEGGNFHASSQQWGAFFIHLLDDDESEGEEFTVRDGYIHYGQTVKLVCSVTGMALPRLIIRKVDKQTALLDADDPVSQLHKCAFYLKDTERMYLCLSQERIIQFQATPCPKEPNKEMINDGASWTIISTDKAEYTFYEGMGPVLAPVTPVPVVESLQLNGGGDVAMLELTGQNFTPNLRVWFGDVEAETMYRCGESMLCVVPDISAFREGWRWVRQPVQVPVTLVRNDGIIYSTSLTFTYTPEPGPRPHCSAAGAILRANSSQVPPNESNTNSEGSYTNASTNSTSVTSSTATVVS

[1] = system: Notch complex mediated transcription; experiment: Beta-lactamase gene under CSL responsive promoter in T-ALL cells (MOLT4); assay type: cell-based; conditions: decrease similar to RNAi against Notch or lactamase, FIG. 22
Source text: T-ALL cells (MOLT4) harboring a beta-lactamase gene under the control of a CSL responsive promoter was used to study the effect of SAHN1 and SAHN11 on Notch complex mediated transcription.

[2] = Circular dichroism spectra, alpha helicity; assay type: physicochemical; conditions: cross-linked vs not cross-linked, FIG. 5
Source text: FIG. 4 is a schematic drawing and detailed structural depiction of a modified polypeptide having the sequence of REM-G1 (SAHN1).

[3] = system: neoplastic murine lymphocytes derived from transgenic mice harboring human Notch mutations
HES1 = HES1 expression in T-ALL cells (MOLT4); assay type: cell-based; conditions: FIG. 23
Source text: (§1) The results of this analysis are show in FIG. 23.

[4] = system: gamma secretase resistant T-ALL cells (MOLT4); experiment: Apoptotic response in gamma secretase resistant T-ALL cells (MOLT4); assay type: cell-based; conditions: MOLT4, after 24 or 48 hours, FIG. 24
Source text: The results of this analysis are show in FIG. 24.

ALL-SIL cells = experiment: Viability of ALL-SIL cells; assay type: cell-based; conditions: FIG. 15
HEY1 = HEY1 expression in T-ALL cells (MOLT4); assay type: cell-based; conditions: FIG. 23
Source text: as §1

[5] = target: T2, ICN1 bound to immunoprecipitated MAML (Homo sapiens, UniProt P46531+Q06330); experiment: Competition for ICN1 bound to immunoprecipitated MAML in T-ALL cellular lysates; assay type: binding; conditions: FIG. 20 and 21
T2 construct: endogenous in cells
T2 sequence (P46531 1754-2555 limits assumed): as the sequence (P46531 1754-2555 limits assumed) above
T2 sequence (Q06330 whole entry): as the sequence (Q06330 whole entry) above

KOPTK1 cells = assay type: cell-based
Source text: The results of this analysis are show in FIG. 25.

Cells = assay type: cell-based
Method: Automated quantitative immunofluorescence was used to determine the intracellular distribution of fluorophore-labeled stapled alpha helices. Cells were incubated with FITC-conjugated peptides SAHN1, SAHN2, or SAHN6; or control. At 16 hours measurements of cellular fluorescence were taken using epifluorescence microscopy. The results of these studies are shown in FIG. 10 in which each circle represents an individual cell and each column represents a treatment condition.
Automated quantitative immunofluorescence was also used to determine the intracellular distribution of fluorophore-labeled stapled alpha helices. Cells were incubated with FITC-conjugated peptides SAHN1, or unstapled SAHN1.

MOLT4 cells = experiment: Viability of MOLT4 cells; assay type: cell-based; conditions: FIG. 14 and 17
CSL-responsive reporter = CSL-responsive reporter in transfected MOLT4 cells; assay type: cell-based; conditions: FIG. 12
Source text: MOLT4 cells transfected with a CSL-responsive reporter were used to test whether stapled SAHN11 can interfere with Notch-mediated activation of transcription.

TALL1 cells = experiment: Viability of TALL1 cells; assay type: cell-based; conditions: FIG. 18

Structure (SMILES)	pull down of both ICN and CSL (ICN and CSL)	transcription from CSL responsive promoter (beta-lactamase) [1]	alpha helical content (circular dichroism) [2]	cytotoxicity to neoplastic murine lymphocytes [3]	expression of HES1 (HES1)	apoptotic response [4]	viability of ALL-SIL cells (ALL-SIL cells)	expression of HEY1 (HEY1)	competing away ICN1 bound to immunoprecipitated MAML [5]	IC50 (KOPTK1 cells)	viability of KOPTK1 cells (KOPTK1 cells; FIG. 16)	effect of stapling on intracellular passage (Cells)	intracellular passage (cellular fluorescence) (Cells)	viability of MOLT4 cells (MOLT4 cells)	expression of the CSL-responsive reporter (CSL-responsive reporter)	viability of TALL1 cells (TALL1 cells)
CC[C@H](C)[C@H](NC(=O)[C@H](CCCNC(=N)N)NC(=O)[C@H](CCCNC(=N)N)NC(=O)[C@H](CCCNC(=N)N)NC(=O)[C@H](CC(C)C)NC(=O)[C@H](CCCNC(=N)N)NC(=O)[C@H](CCC(=O)O)NC(=O)CCNC(C)=O)C(=O)N[C@@]1(C)CCCC=CCCC[C@@](C)(C(=O)N[C@@H](Cc2c[nH]cn2)C(=O)N[C@@H](Cc2c[nH]cn2)C(=O)N[C@@H](CO)C(=O)N[C@H](C(N)=O)[C@@H](C)O)NC(=O)[C@H](CCCNC(=N)N)NC(=O)[C@H](CS)NC(=O)[C@H](CC(C)C)NC1=O [SAHN1] (Ac-[βAla]ERLRRRI[S5]LCR[S5]HHST-NH2; staple 9-13)	can pull down both ICN and CSL	decreased transcription	96%	is cytotoxic to neoplastic murine lymphocytes	decrease expression of HES1	induces an apoptotic response	reduced the viability of ALL-SIL cells	decrease expression of HES1 and HEY1	can compete away ICN1	8 µM	reduced the viability of KOPTK1 cells	stapling of the peptide did not, in this instance, appear to impact intracellular passage	exhibited significant intracellular passage			
CC[C@H](C)[C@H](NC(=O)[C@H](CCCNC(=N)N)NC(=O)[C@H](CCCNC(=N)N)NC(=O)CCNC(=O)[C@H](CCCCNC(=O)CCCC[C@@H]1SC[C@@H]2NC(=O)N[C@@H]21)NC(C)=O)C(=O)N[C@@H](CCC(=O)O)C(=O)N[C@@H](CC(C)C)C(=O)N[C@@H](CS)C(=O)N[C@@H](CCCNC(=N)N)C(=O)N[C@@H](CCCNC(=N)N)C(=O)N[C@@H](Cc1c[nH]cn1)C(=O)N[C@@H](Cc1c[nH]cn1)C(=O)N[C@@]1(C)CCCC=CCCC[C@@](C)(C(=O)N[C@@H](CCCNC(=N)N)C(=O)N[C@@H](Cc2ccc(O)cc2)C(=O)N[C@@H](CCC(=O)O)C(=O)N[C@@H](C)C(=O)N[C@H](C(N)=O)C(C)C)NC(=O)[C@H](CCC(=O)O)NC(=O)[C@H](CS)NC(=O)[C@H]([C@@H](C)O)NC1=O [SAHN11] (Ac-K(Biotin)[βAla]RRIELCRRHH[S5]TCE[S5]RYEAV-NH2; staple 13-17; N-terminus assumed)	can pull down both ICN and CSL	decreased transcription												reduced the viability of MOLT4 cells	reduced expression of the CSL-responsive reporter in a dose-dependent manner	reduced the viability of TALL1 cells
